Legend:
CD69 = assay: Induction of CD69 in human whole blood (hWB); assay type: cell-based; conditions: 17 hrs at 37 C, CD69 surface staining, 100% set to 1 uM resiquimod, average where performed multiple times
Procedure: The induction of Type I interferon (IFN) MX-1 genes and the B-cell activation marker CD69 are downstream events that occur upon activation of the TLR7 pathway. The following is a human whole blood assay that measures their induction in response to a TLR7 agonist.
Heparinized human whole blood was harvested from human subjects and treated with test TLR7 agonist compounds at 1 mM. The blood was diluted with RPMI 1640 media and Echo was used to predot 10 nL per well giving a final concentration of 1 uM (10 nL in 10 uL of blood). After mixing on a shaker for 30 sec, the plates were covered and placed in a 37° C. chamber for o/n=17 hrs. Fixing/lysis buffer was prepared (5×→1× in H2O, warm at 37° C.; Cat #BD 558049) and kept the perm buffer (on ice) for later use.
For surface markers staining (CD69): prepared surface Abs: 0.045 ul hCD14-FITC (ThermoFisher Cat #MHCD1401)+0.6 ul hCD19-ef450 (ThermoFisher Cat #48-0198-42)+1.5 ul hCD69-PE (cat #BD555531)+0.855 ul FACS buffer. Added 3 ul/well, spin1000 rpm for 1 min and mixed on shaker for 30 sec, put on ice for 30 mins. Stop stimulation after 30 min with 70 uL of prewarmed 1× fix/lysis buffer and use Feliex mate to resuspend (15 times, change tips for each plate) and incubate at 37C for 10 min.
Centrifuge at 2000 rpm for 5 min aspirate with HCS plate washer, mix on shaker for 30 sec and then wash with 70 uL in dPBS and pelleted 2× s (2000 rpm for 5 min) and 50 ul wash in FACS buffer pelleted 1×s(2000 rpm for 5 min). Mix on shaker for 30 sec. For Intracellular markers staining (MX-1): Add 50 ul of BD Perm buffer III and mix on shaker for 30 sec. Incubate on ice for 30 min (in the dark). Wash with 50 uL of FACS buffer 2× (spin @2300 rpm×5 min after perm) followed by mixing on shaker for 30 sec. Resuspended in 20 ul of FACS buffer containing MX1 antibody ( )(4812)-Alexa 647: Novus Biologicals #NBP2-43704AF647) 20 ul FACS bf+0.8 ul hlgG+0.04 ul MX-1. Spin 1000 rpm for 1 min, mix on shaker for 30se and the samples were incubated at RT in the dark for 45 min followed by washing 2× FACS buffer (spin @2300 rpm×5 min after perm). Resuspend 20 ul (35 uL total per well) of FACS buffer and cover with foil and place in 4° C. to read the following day. Plates were read on iQuePlus. The results were loaded into toolset and IC50 curves are generated in curve master. The y-axis 100% is set to 1 uM of resiquimod.

human TLR7 = target: T1, human TLR7 (Homo sapiens, UniProt Q9NYK1); assay: Human TLR7 agonist activity assay (hTLR7 reporter, HEK-Blue TLR7 cells, SEAP); assay type: cell-based; conditions: HEK-Blue TLR7 cells with SEAP reporter, 18 h treatment; average where assay performed multiple times
T1 construct: host or cells: HEK-Blue TLR7 cells (engineered human embryonic kidney cells)
T1 sequence (Q9NYK1 27-1049): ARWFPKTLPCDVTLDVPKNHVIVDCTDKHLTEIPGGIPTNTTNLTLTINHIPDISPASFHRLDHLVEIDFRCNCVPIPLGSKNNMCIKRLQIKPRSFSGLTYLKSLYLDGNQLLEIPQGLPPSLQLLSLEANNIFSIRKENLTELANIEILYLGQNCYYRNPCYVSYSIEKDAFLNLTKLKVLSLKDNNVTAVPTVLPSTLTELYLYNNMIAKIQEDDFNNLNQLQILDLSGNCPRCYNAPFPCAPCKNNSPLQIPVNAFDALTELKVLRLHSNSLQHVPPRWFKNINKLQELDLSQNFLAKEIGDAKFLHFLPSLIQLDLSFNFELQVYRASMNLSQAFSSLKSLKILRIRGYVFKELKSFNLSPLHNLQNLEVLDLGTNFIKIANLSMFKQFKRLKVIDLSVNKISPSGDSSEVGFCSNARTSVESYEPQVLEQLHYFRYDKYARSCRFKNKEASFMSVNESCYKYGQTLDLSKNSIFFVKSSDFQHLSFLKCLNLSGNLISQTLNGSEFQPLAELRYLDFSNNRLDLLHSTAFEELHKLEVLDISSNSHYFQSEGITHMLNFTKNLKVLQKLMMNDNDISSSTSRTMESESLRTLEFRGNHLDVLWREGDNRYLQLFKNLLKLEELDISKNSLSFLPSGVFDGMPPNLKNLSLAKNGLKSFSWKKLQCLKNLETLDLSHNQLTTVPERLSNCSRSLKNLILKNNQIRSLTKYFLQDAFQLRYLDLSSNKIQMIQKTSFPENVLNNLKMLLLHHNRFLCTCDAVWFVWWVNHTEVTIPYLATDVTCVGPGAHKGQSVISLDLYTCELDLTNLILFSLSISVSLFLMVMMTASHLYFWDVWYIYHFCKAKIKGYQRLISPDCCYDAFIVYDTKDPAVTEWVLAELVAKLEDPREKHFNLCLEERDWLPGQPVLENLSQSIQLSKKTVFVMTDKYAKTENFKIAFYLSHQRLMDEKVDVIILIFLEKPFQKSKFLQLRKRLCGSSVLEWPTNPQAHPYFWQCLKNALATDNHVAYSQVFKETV
Procedure: This procedure describes a method for assaying human TLR7 (hTLR7) agonist activity of the compounds disclosed in this specification.
HEK-Blue™ TLR7 cells were added to each well of a 384-well tissue-culture plate (15,000 cells per well) and incubated 16-18 h at 37° C., 5% CO2. Compounds (100 nl) were dispensed into wells containing the HEK-Blue™ TLR cells and the treated cells were incubated at 37° C., 5% CO2. After 18 h treatment ten microliters of freshly-prepared Quanti-Blue™ reagent (Invivogen) was added to each well, incubated for 30 min (37° C., 5% CO2) and SEAP levels measured using an Envision plate reader (OD=620 nm). The half maximal effective concentration values (EC50; compound concentration which induced a response halfway between the assay baseline and maximum) were calculated.

Row | Compound | EC50 (CD69) [nM] | EC50 (human TLR7) [nM]
1 | COc1cc(CN2C[C@@H]3C[C@H]2CO3)ccc1Cn1ncc2nc(N)nc(NCc3cc(C)on3)c21 [Compound 127, 1-[(2-methoxy-4-{[(1S,4S)-2-oxa-5-azabicyclo[2.2.1]heptan-5-yl]methyl}phenyl)methyl]-N7-[(5-methyl-1,2-oxazol-3-yl)methyl]-1H-pyrazolo[4,3-d]pyrimidine-5,7-diamine] | 16.7 | 682
2 | CCC[C@@H](CCO)Nc1nc(N)nc2cnn(Cc3ncc(CN4C[C@H]5C[C@@H]4CN5CCO)cc3OC)c12 [Compound 138, (3S)-3-({5-amino-1-[(5-{[(1R,4R)-5-(2-hydroxyethyl)-2,5-diaza-bicyclo[2.2.1]heptan-2-yl]methyl}-3-methoxypyridin-2-yl)methyl]-1H-pyrazolo[4,3-d]pyrimidin-7-yl}amino)hexan-1-ol] | 3 | 278
3 | CCC[C@@H](CCO)Nc1nc(N)nc2cnn(Cc3cnc(CN4C[C@H]5CN(C)C[C@H]5C4)cc3OC)c12 [Compound 132, (3S)-3-({1-[(6-{[(3aR,6aS)-5-methyl-octahydropyrrolo[3,4-c]pyrrol-2-yl]methyl}-4-methoxypyridin-3-yl)methyl]-5-amino-1H-pyrazolo [4,3-d]pyrimidin-7-yl}amino)hexan-1-ol] | 2.2 | 65.9
4 | COc1cc(CN2C[C@@H]3C[C@H]2CN3)ccc1Cn1ncc2nc(N)nc(NCc3noc(C)n3)c21 [Compound 129, 1-[(4-{[(1S,4S)-2,5-diaza-bicyclo[2.2.1]heptan-2-yl]methyl}-2-methoxyphenyl)methyl]-N7-[(5-methyl-1,2,4-oxadiazol-3-yl)methyl]-1H-pyrazolo[4,3-d]pyri-midine-5,7-diamine] | 804 | 323
5 | COc1cc(CN2C[C@@H]3C[C@H]2CN3CCO)ccc1Cn1nc(C)c2nc(N)nc(NCc3noc(C)n3)c21 [Compound 142, 2-[(1S,4S)-5-({4-[(5-amino-3-methyl-7-{[(5-methyl-1,2,4-oxadiazol-3-yl)methyl]amino}-1H-pyrazolo-[4,3-d]pyrimidin-1-yl)methyl]-3-methoxyphenyl}methyl)-2,5-diaza-bicyclo[2.2.1]heptan-2-yl]ethan-1-ol] |  | 1230
6 | CCC[C@@H](CCO)Nc1nc(N)nc2cnn(Cc3ccc(C(=O)N4C[C@H]5CN(C)C[C@H]5C4)cc3OC(F)F)c12 [Compound 124, (3S)-3-{[1-({4-[(3aR,6aS)-5-methyl-octahydropyrrolo[3,4-c]pyrrole-2-carbonyl]-2-(difluoromethoxy)-phenyl}methyl)-5-amino-1H-pyra-zolo[4,3-d]pyrimidin-7-yl]amino}-hexan-1-ol] |  | 82
7 | CCC[C@@H](CCO)Nc1nc(N)nc2cnn(Cc3ccc(CN[C@H]4C[C@H]5COC[C@H]54)cc3OC)c12 [Compound 108, (3S)-3-[(5-amino-1-{[2-methoxy-4-({[(1R,5R,6S)-3-oxabicyclo-[3.2.0]heptan-6-yl]amino}methyl)phenyl]methyl}-1H-pyrazolo-[4,3-d]pyrimidin-7-yl)amino]hexan-1-ol] |  | 4.9
8 | CCC[C@@H](CCO)Nc1nc(N)nc2cnn(Cc3ccc(CN4C[C@@H]5C[C@H]4CN5C(C)=O)cc3OC)c12 [Compound 101, 1-[(1S,4S)-5-({4-[(5-amino-7-{[(3S)-1-hydroxyhexan-3-yl]amino}-1H-pyrazolo[4,3-d]pyrimidin-1-yl)methyl]-3-methoxypheyl}-methyl)-2,5-diazabicyclo[2.2.1]-heptan-2-yl]ethan-1-one] |  | 28.8
9 | CCCCNc1nc(N)nc2cnn(Cc3ccc(CN4C[C@H]5CCS(=O)(=O)[C@H]5C4)cc3OC)c12 [Compound 104, (3aR,6aR)-5-[(4-{[5-amino-7-(butyl-amino)-1H-pyrazolo[4,3-d]pyrimidin-1-yl]methyl}-3-methoxyphenyl)methyl]-hexahydro-2H-1λ6-thieno[2,3-c] pyrrole-1,1-dione] |  | 197
10 | COc1cc(CNC23CC(C2)C3)ccc1Cn1ncc2nc(N)nc(NCc3cc(C)on3)c21 [Compound 126, 1-({4-[({bicyclo[1.1.1]pentan-1-yl}amino)methyl]-2-methoxy-phenyl}methyl)-N7-[(5-methyl-1,2-oxazol-3-yl)methyl]-1H-pyra-zolo[4,3-d]pyrimidine-5,7-diamine] |  | 287
11 | CCC[C@@H](CCO)Nc1nc(N)nc2cnn(Cc3ccc(CNC4[C@H]5COC[C@@H]45)cc3OC)c12 (stereo partly drawn) [Compound 107, (3S)-3-[(5-amino-1-{[2-methoxy-4-({[(1R,5S,6S)-3-oxabicyclo[3.1.0]-hexan-6-yl]amino}methyl)phenyl]-methyl}-1H-pyrazolo[4,3-d]pyrimidin-7-yl)amino]hexan-1-ol] |  | 5.3
12 | CCCCNc1nc(N)nc2cnn(Cc3ccc(CN4C5CNCC4C5)cc3OC)c12 [Compound 102, N7-butyl-1-{[4-({3,6-diazabicyclo-[3.1.1]heptan-6-yl}methyl)-2-methoxyphenyl]methyl}-1H-pyrazolo-[4,3-d]pyrimidine-5,7-diamine] |  | 89.6
13 | CCC[C@@H](CCO)Nc1nc(N)nc2cnn(Cc3ccc(CN4C[C@@H]5OCC[C@@H]54)cc3OC)c12 [Compound 109, (3S)-3-({5-amino-1-[(2-methoxy-4-{[(1S,5S)-2-oxa-6-azabicyclo-[3.2.0]heptan-6-yl]methyl}phenyl)-methyl]-1H-pyrazolo[4,3-d]pyrimidin-7-yl}amino)hexan-1-ol] |  | 2.2
14 | CCCCNc1nc(N)nc2cnn(Cc3ccc(CN4C[C@H]5CN(C)C[C@H]5C4)cc3OC)c12 [Compound 103, 1-[(4-{[(3aR,6aS)-5-methyl-octa-hydropyrrolo[3,4-c]pyrrol-2-yl]methyl}-2-methoxyphenyl)methyl]-N7-butyl-1H-pyrazolo[4,3-d]pyrimidine-5,7-diamine] |  | 27.8
15 | CCC[C@@H](CCO)Nc1nc(N)nc2cnn(Cc3ccc(C(=O)N4C[C@H]5C[C@@H]4CN5C)cc3OC(F)F)c12 [Compound 125, (3S)-3-[(5-amino-1-{[2-(difluoro-methoxy)-4-[(1R,4R)-5-methyl-2,5-diazabicyclo[2.2.1]heptane-2-carbonyl]phenyl]methyl}-1H-pyrazolo[4,3-d]pyrimidin-7-yl)amino]hexan-1-ol] |  | 301

— patent US20230041738A1, “1H-PYRAZOLO[4,3-d]PYRIMIDINE COMPOUNDS AS TOLL-LIKE RECEPTOR 7 (TLR7) AGONISTS” (BRISTOL-MYERS SQUIBB COMPANY, priority 2020, published 2023)
